The structures appear in SMILES notation.

Experimental findings from publication PMC11025159 (Journal of Translational Medicine, 2024) are described below.

Experiment [1] has as its system athymic nude mice (NU/J Foxn1nu). Put plainly: Hair growth in athymic nude mice (topical, 28 days). Format: in vivo. Particulars: for H&E skin histopathology finding / hair follicle grade: day 28; for early onset of hair: topical. The method, then:
The groups are as follows: Group 1-Control (untreated), Group 2-Vehicle control, Group 3-tofacitinib citrate (0.8 mg/Kg), Group 4-tofacitinib citrate (0.08 mg/Kg), Group 5-MJ04 (0.08 mg/Kg), Group 6-MJ04 (0.04 mg/Kg), Group 7-MJ04 (0.016 mg/Kg), Group 8-baricitinib (0.1 mg/Kg), Group 9-baricitinib (0.04 mg/Kg), and Group 10-baricitinib (0.02 mg/Kg). At the end of the experiment, skin samples were collected and preserved in 10% neutral buffered formalin for tissue sectioning and staining using haematoxylin and eosin (H&E). The histopathological examinations were performed under the 10× and 40× objectives of light microscope (Magnus, Mx21i), and hair follicles were graded on a scale of 0 to 4 (++++).
The skin samples collected from athymic nude mice (NU/J Foxn1^nu) were preserved in 10% neutral buffered formalin and processed for tissue sectioning. The skin sections (10 µm) of nude mice were stained using haematoxylin and eosin (H&E) and viewed under 10× and 40× objectives of the light microscope (Magnus, Mx21i). The histopathological examination of the samples was performed, and the hair follicles in the skin sections were graded on a scale of 0 to 4 (++++).

Experiment [2] has as its system DHT-induced AGA mice. Kind of experiment: Hair regrowth in DHT-induced AGA mice model (topical, 28 days). Format: in vivo, C57BL/6J mice. Particulars: for H&E skin histopathology finding: Days 7, 14, 21, 28; for hair follicle phase (histopathology): skin samples days 7, 14, 21, 28; for entry into the anagen phase: topical once a day in presence of testosterone. The method, then: C57BL/6 J mice (male) were obtained from CSIR-IIIM Animal House at 7 weeks of age. We used a DHT-induced AGA mice model for this study. […] At the end of the experiment, skin samples were collected and preserved in 10% neutral buffered formalin for tissue sectioning and staining using haematoxylin and eosin (H&E). The histopathological examinations were performed under the 10× and 40× objectives of light microscope (Magnus, Mx21i).
Dorsal skin samples from C57BL/6J mice were shaved and collected for histological and molecular analyses on Days 7, 14, 21, and 28. The full-thickness skin tissue was fixed in a 10% neutral buffered formalin solution (Sigma) overnight and subsequently dehydrated for embedding in paraffin. Haematoxylin and eosin (H&E) staining was performed on the skin tissue, and digital photomicrographs were taken from the representative areas using light microscope (Magnus, Mx21i).
The quantification of anagen initiation was assessed by observing changes in the dorsal skin colour of C57BL/6 mice, a phenomenon closely linked to the onset of the anagen phase. Anagen quantification was done by employing threshold analysis on dorsal skin colouration using ImageJ. The darkening of the skin, attributed to melanogenesis, strongly correlates with the progression of anagen. This analysis is visually depicted as a heatmap using GraphPad Prism 9.5 Software.

On to `CCS(=O)(=O)N1CC(CC#N)(n2cc(-c3ncnc4[nH]ccc34)cn2)C1` [Baricitinib, baricitinib, reference compound], for which the “H&E skin histopathology finding” value is “Moderate degree of epidermal thickening” in experiment [1] (0.02 mg/kg); “Moderate degree of epidermal thickening” in experiment [1] (0.04 mg/kg); “Increased and morphologically distinct hair follicles” in experiment [1] (0.1 mg/kg); “Minimal degree of epidermal thickening with increased distinct hair follicles” in experiment [2] (0.04mg/kg). Besides, the hair follicle grade entry in experiment [1] (0.02 mg/kg) was “++++ (graded on a scale ranging from 0 to 4 (++++))”; in experiment [1] (0.04 mg/kg), “++++ (graded on a scale ranging from 0 to 4 (++++))”; in experiment [1] (0.1 mg/kg), “+++ (graded on a scale ranging from 0 to 4 (++++))”. Moreover, in experiment [1], the “early onset of hair” value is 12 days. The “hair follicle phase (histopathology)” value in experiment [2] is listed as “at least in the anagen IIIc-IV phase”. Moreover, the “entry into the anagen phase” value in experiment [2] is “rapid entry into the anagen phase within seven days of treatment”.
Consider `Fc1ccc(-c2cnc3[nH]cc(-c4ccnc(NC5CC5)n4)c3c2)cc1` [MJ04], for which the “H&E skin histopathology finding” value was “Mild epidermal thickening with increased hair follicles” in experiment [1] (0.016 mg/kg); “Mild epidermal thinning with increased hair follicles in the dermis and hypodermis” in experiment [1] (0.04 mg/kg); “Minimal epidermal thickening with moderate hair follicle” in experiment [1] (0.08 mg/kg); “Minimal degree of epidermal atrophy” in experiment [2] (0.04mg/kg); “Normal epidermis with increased hair follicles” in experiment [2] (0.08mg/kg). Also, the hair follicle grade result in experiment [1] (0.016 mg/kg) is “+++ (graded on a scale ranging from 0 to 4 (++++))”; in experiment [1] (0.04 mg/kg), “++++ (graded on a scale ranging from 0 to 4 (++++))”; in experiment [1] (0.08 mg/kg) it was “++ (graded on a scale ranging from 0 to 4 (++++))”. In experiment [1], the “early onset of hair” value came out at 12 days. In experiment [2] (0.04 mg/Kg topical), the “hair growth compared to controls and tofacitinib-treated mice” value was “significantly higher and homogeneous hair growth”. Moreover, the “hair follicle phase (histopathology)” value in experiment [2] is reported as “at least in the anagen IIIc-IV phase”. The “entry into the anagen phase” value in experiment [2] is recorded as “rapid entry into the anagen phase within seven days of treatment”. For the same molecule, in experiment [2] (within 10 days of treatment), the “mice displaying intense skin darkening followed by hair growth” value is reported as “around 90%”.
